Measurements: ChEMBL document CHEMBL5034034 (J Med Chem, 2021)
pEC50, pKi: −log10 of the molar value. Active and inactive are the calls of the source. The rule behind the calls is not given here.

Experiments:
[1] = organism: Sus scrofa; assay: Stability of the compound assessed as porcine pancreatic elastase-mediated parent compound depletion by measuring parent compound remaining after 1 hr by LC-MS/MS analysis
[2] = AUC extrapolated in Wistar Han rat at 5 mg/kg, id measured upto 24 hrs by LC-MS/MS analysis; type: ADME, organism-based; details: in vivo, other
[3] = AUC(0 to infinity) in Wistar Han rat at 5 mg/kg, id measured upto 24 hrs by LC-MS/MS analysis; type: ADME, organism-based; set-up: dose 5 mg/kg, time <=24; details: in vivo
[4] = Metabolic stability in cynomolgus monkey whole blood assessed as half life measured upto 6 hrs by LC-MS/MS analysis; type: ADME, tissue-based, Macaca fascicularis
[5] = biological target: T1, Proprotein convertase subtilisin/kexin type 9 (Homo sapiens, UniProt Q8NBP7); assay: Inhibition of human PCSK9 using Alexa Fluor […] as substrate incubated for 2 hrs by FRET assay
T1 sequence (Q8NBP7 31-152 limits assumed): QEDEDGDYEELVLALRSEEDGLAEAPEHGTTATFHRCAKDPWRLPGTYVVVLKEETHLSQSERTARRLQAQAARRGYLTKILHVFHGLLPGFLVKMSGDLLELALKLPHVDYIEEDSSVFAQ
T1 sequence (Q8NBP7 153-692 limits assumed): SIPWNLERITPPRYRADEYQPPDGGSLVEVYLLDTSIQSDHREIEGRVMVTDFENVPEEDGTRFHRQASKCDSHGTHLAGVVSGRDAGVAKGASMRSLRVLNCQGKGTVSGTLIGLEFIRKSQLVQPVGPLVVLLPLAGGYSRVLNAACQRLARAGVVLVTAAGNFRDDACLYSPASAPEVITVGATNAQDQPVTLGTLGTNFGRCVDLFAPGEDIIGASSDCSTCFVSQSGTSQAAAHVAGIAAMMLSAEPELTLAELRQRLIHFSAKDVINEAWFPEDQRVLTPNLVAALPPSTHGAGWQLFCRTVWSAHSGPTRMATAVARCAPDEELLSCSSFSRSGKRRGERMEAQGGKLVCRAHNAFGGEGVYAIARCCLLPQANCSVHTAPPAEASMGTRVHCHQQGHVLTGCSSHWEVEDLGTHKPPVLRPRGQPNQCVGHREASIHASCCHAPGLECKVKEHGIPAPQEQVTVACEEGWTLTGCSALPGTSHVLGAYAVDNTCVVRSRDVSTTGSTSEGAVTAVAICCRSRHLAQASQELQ

[6] = biological target: T1, Proprotein convertase subtilisin/kexin type 9; assay: Inhibition of human PCSK9 using Alexa Fluor […] as substrate incubated for 2 hrs by FRET plus assay
[7] = biological target: T1, Proprotein convertase subtilisin/kexin type 9; assay: Inhibition of human PCSK9 using Alexa Fluor […] as substrate incubated for 2 hrs by FRET ultra assay
[8] = biological target: T2, Solute carrier organic anion transporter family member 1B1 (Homo sapiens, UniProt Q9Y6L6); assay: Inhibition of OATP1B1 (unknown origin) expressed in HEK293 cells assessed as reduction in OATP 1B1-mediated [3H]-pitavastatin uptake preincubated for 30 mins followed by [3H]-pitavastatin addition and measured after 2 mins by liquid scintillation analysis; type: cell-based
T2 sequence (Q9Y6L6 whole entry): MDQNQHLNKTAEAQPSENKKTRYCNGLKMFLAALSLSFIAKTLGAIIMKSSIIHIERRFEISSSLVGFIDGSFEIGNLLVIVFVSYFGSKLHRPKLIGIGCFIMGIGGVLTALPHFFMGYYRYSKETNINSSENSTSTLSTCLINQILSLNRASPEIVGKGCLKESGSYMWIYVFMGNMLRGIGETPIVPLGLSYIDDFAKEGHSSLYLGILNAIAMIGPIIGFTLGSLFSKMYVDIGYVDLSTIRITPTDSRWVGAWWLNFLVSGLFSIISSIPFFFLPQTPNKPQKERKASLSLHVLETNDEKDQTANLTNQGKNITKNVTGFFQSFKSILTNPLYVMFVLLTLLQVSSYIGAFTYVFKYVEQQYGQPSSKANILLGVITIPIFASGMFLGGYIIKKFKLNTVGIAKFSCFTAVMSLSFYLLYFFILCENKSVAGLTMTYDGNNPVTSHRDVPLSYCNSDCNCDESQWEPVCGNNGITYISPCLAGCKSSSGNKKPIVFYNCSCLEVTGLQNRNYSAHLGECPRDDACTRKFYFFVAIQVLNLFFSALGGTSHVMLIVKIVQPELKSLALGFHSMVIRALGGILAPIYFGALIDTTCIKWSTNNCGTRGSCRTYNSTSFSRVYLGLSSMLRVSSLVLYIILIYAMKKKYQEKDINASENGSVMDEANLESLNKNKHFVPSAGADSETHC

[9] = organism: Bos taurus; assay: Stability of the compound assessed as bovine pancreas alpha chymotrypsin-mediated parent compound depletion by measuring parent compound remaining after 1 hr by LC-MS/MS analysis
[10] = organism: Sus scrofa; assay: Stability of the compound assessed as porcine pepsin-mediated parent compound depletion by measuring parent compound remaining after 1 hr by LC-MS/MS analysis
[11] = Stability of the compound assessed as bovine pancreatic trypsin-mediated parent compound depletion by measuring parent compound remaining after 1 hr by LC-MS/MS analysis; type: ADME, Bos taurus; details: cattle, read-out: Stability
[12] = Cmax in Wistar Han rat at 5 mg/kg, id measured upto 24 hrs by LC-MS/MS analysis; type: ADME, organism-based; set-up: dose 5 mg/kg, time <=24; details: in vivo
[13] = Tmax in Wistar Han rat at 5 mg/kg, id measured upto 24 hrs by LC-MS/MS analysis; type: ADME, organism-based; details: in vivo
[14] = Bioavailability in Wistar Han rat at 5 mg/kg, id measured upto 24 hrs by LC-MS/MS analysis; type: ADME, organism-based; details: in vivo
[15] = AUC(0 to infinity) in cynomolgus monkey at 0.2 mg/kg, iv measured upto 72 hrs by LC-MS/MS analysis; type: ADME, organism-based, Macaca fascicularis; set-up: route intravenous, dose 0.2 mg/kg, time <=72; details: in vivo
[16] = Clearance in cynomolgus monkey at 0.2 mg/kg, iv measured upto 72 hrs by LC-MS/MS analysis; type: ADME, organism-based, Macaca fascicularis; details: in vivo
[17] = Volume of distribution at steady state in cynomolgus monkey at 0.2 mg/kg, iv measured upto 72 hrs by LC-MS/MS analysis; type: ADME, organism-based, Macaca fascicularis; details: in vivo, read-out: Vdss
[18] = Half life in cynomolgus monkey at 0.2 mg/kg, iv measured upto 72 hrs by LC-MS/MS analysis; type: ADME, organism-based, Macaca fascicularis; details: in vivo
[19] = Protein binding in cynomolgus monkey at 0.2 mg/kg, iv measured upto 72 hrs by LC-MS/MS analysis; type: ADME, organism-based, Macaca fascicularis; details: in vivo, read-out: PB (converted)
[20] = Unbound clearance in cynomolgus monkey at 0.2 mg/kg, iv measured upto 72 hrs by LC-MS/MS analysis; type: ADME, organism-based, Macaca fascicularis; details: in vivo
[21] = AUC(0 to infinity) in cynomolgus monkey at 1 mg/kg, po measured upto 72 hrs by LC-MS/MS analysis; type: ADME, organism-based, Macaca fascicularis; set-up: route oral, dose 1 mg/kg, time <=72; details: in vivo
[22] = AUC extrapolated in cynomolgus monkey at 1 mg/kg, po measured upto 72 hrs by LC-MS/MS analysis; type: ADME, organism-based, Macaca fascicularis; details: in vivo
[23] = Cmax in cynomolgus monkey at 1 mg/kg, po measured upto 72 hrs by LC-MS/MS analysis; type: ADME, organism-based, Macaca fascicularis; set-up: route oral, dose 1 mg/kg, time <=72; details: in vivo
[24] = Tmax in cynomolgus monkey at 1 mg/kg, po measured upto 72 hrs by LC-MS/MS analysis; type: ADME, organism-based, Macaca fascicularis; details: in vivo
[25] = Oral bioavailability in cynomolgus monkey at 1 mg/kg measured upto 72 hrs by LC-MS/MS analysis; type: ADME, organism-based, Macaca fascicularis; details: in vivo
[26] = tested on: Mast cell; assay: Induction of rat mast cells degranulation activity at 100 uM incubated for 30 mins; type: functional, tissue-based
[27] = biological target: T1, Proprotein convertase subtilisin/kexin type 9; assay: Inhibition of PCSK9 in human plasma assessed as reduction in unbound PCSK9 by target engagement assay; type: cell-free
[28] = organism: Macaca fascicularis; assay: Inhibition of PCSK9 in cynomolgus monkey plasma assessed as reduction in unbound PCSK9 by target engagement assay; type: cell-free
[29] = Reduction in LDL-cholesterol levels in cynomolgus monkey at 0.2 mg/kg, iv after 48 hrs; type: functional, Macaca fascicularis; set-up: scale not given: the % may be the effect or the level left
[30] = tested on: Macaca fascicularis; assay: Reduction in LDL-cholesterol levels in cynomolgus monkey at 0.2 mg/kg, iv after 4 weeks; type: functional, organism-based
[31] = Reduction in unbound PCSK9 levels in cynomolgus monkey at 0.2 mg/kg, iv after 24 to 48 hrs; type: functional, Macaca fascicularis; set-up: scale not given: the % may be the effect or the level left; details: time 24-48 hrs
[32] = Reduction in unbound PCSK9 levels in cynomolgus monkey at 0.2 mg/kg, po after 0.5 to 6 hrs; type: functional, Macaca fascicularis; set-up: scale not given: the % may be the effect or the level left; details: time 0.5-6 hrs
[33] = Reduction in unbound PCSK9 levels in cynomolgus monkey at 0.2 mg/kg, po after 24 hrs; type: functional, Macaca fascicularis; set-up: scale not given: the % may be the effect or the level left

Row | Stability [1] | %AUCextra [2] | AUC(0-inf) [3] | half-life [4] | pKi [5] | pKi [6] | pKi [7] | pEC50 [8] | Stability [9] | Stability [10] | remaining at 1 h [11] | Cmax [12] | Tmax [13] | bioavailability [14] | AUC(0-inf) [15] | clearance [16] | Vd [17] | half-life [18] | fraction unbound at 72 h [19] | CL free [20] | Compound | other results
1 | 97% | 3% | 0.274 µM·h | > 6 h | < 9.89 | 10.94 | 11.62 | < 4.66 | 93% | 97.2% | 96.8% | 92 nM | 0.5 h | 2.7% | 1.47 µM·h | 1.4 mL/min/kg | 0.7 L/kg | 7.6 h | 0.247 | 5.8 mL/min/kg | COc1ccc(C[C@@H]2NC(=O)[C@H]([C@@H](C)O)NC(=O)[C@@H]3[C@@H]4CCN3C(=O)[C@@H]3Cc5cn(c6ccc(F)cc56)Cc5cn(nn5)-c5cc(cc(c5)CSCCC(=O)N[C@@H](CNC(=O)CCOCCOCC[N+](C)(C)C)C(=O)N[C@H](C)C(=O)N[C@@H](Cc5cccc(c5)C/C=C/CO4)C(=O)N3)CSCCNC(=O)[C@]3(C)CCCN3C2=O)cc1 | AUC(0-inf) [21]: 0.216 µM·h; %AUCextra [22]: 43%; Cmax [23]: 9.8 nM; Tmax [24]: 2 h; bioavailability [25]: 2.9%; Activity [26]: inactive; inhibition [27]: Active; inhibition [28]: Active; Activity [29]: >50%; Activity [30]: inactive; Activity [31]: >80%; Activity [32]: 80%; Activity [33]: 60%
2 | 92.6% | 3% | 0.497 µM·h | > 6 h | > 9.89 | 11.13 | 12.03 | 5.60 | 95.3% | 99% | 100% | 178 nM | 0.3 h | 1.4% | 0.762 µM·h | 2.7 mL/min/kg | 1.2 L/kg | 10.1 h | 0.256 | 10.6 mL/min/kg | COc1ccc(C[C@@H]2NC(=O)[C@H]([C@@H](C)O)NC(=O)[C@@H]3[C@@H]4CCN3C(=O)[C@@H]3Cc5cn(c6ccc(F)cc56)Cc5cn(nn5)-c5cc(cc(c5)CSCCC(=O)N[C@@H](C)C(=O)N[C@H](CNC(=O)CCOCCOCC[N+](C)(C)C)C(=O)N[C@@H](Cc5cccc(c5)C/C=C/CO4)C(=O)N3)CSCCNC(=O)[C@]3(C)CCCN3C2=O)cc1 | Activity [26]: inactive; Activity [29]: >50%; Activity [30]: inactive; Activity [31]: >80%
